Measured values reported in ChEMBL document CHEMBL1201862, “PubChem BioAssay data set” (2004).
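How tested: cells in 96-well plates exposed to compound for 48 hours at five concentrations. GI50 = concentration required for 50% inhibition of growth.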 Activity calls are given as the source filed them. Rule as the data show it: active = GI50 up to about 1.1 µM and inactive = higher.

Assays:
Experiment in all cases: NCI anticancer screen, dose series, 48 h
[1] = tested on: BT-549
[2] = tested on: HCT-15
[3] = tested on: Hs-578T
[4] = tested on: K562
[5] = tested on: KM12
[6] = tested on: M14
[7] = tested on: MDA-MB-435
[8] = tested on: MDA-N
[9] = tested on: MOLT-4
[10] = tested on: NCI-H23
[11] = tested on: OVCAR-4
[12] = tested on: OVCAR-5
[13] = tested on: OVCAR-8
[14] = tested on: PC-3
[15] = tested on: SW-620
[16] = tested on: T47D
[17] = tested on: UO-31

| SMILES | GI50 [1] | GI50 [2] [µM] | GI50 [3] | GI50 [4] | GI50 [5] | GI50 [6] | GI50 [7] | GI50 [8] | GI50 [9] | GI50 [10] | GI50 [11] | GI50 [12] | GI50 [13] | GI50 [14] | GI50 [15] | GI50 [16] | GI50 [17] |
| --- | --- | --- | --- | --- | --- | --- | --- | --- | --- | --- | --- | --- | --- | --- | --- | --- | --- |
| CN(C)c1ccc(C=c2c3ccccc3n3c2c2ccccc2[n+]3C)cc1 | 0.274 µM (active) | 0.456 | 0.635 µM (active) | 0.134 µM (active) | 1.01 µM (active) | 0.493 µM (active) | 0.428 µM (active) | 0.526 µM (active) | 0.493 µM (active) | 1.01 µM (active) | 1.18 µM (inactive) | 3.02 µM (inactive) | 0.364 µM (active) | 0.353 µM (active) | 0.164 µM (active) | 0.248 µM (active) | 0.836 µM (active) |
| CCOC(=O)O/C(=C\c1ccc(OC)cc1)c1c(OC(=O)OCC)n(C(=O)OCC)c2ccccc12 | 39.5 µM (inactive) | 7.05 | 22.3 µM (inactive) | 2.77 µM (inactive) | 7.83 µM (inactive) | 23.6 µM (inactive) | 24.9 µM (inactive) | 19.3 µM (inactive) | – | 27.9 µM (inactive) | 32.4 µM (inactive) | 76.9 µM (inactive) | 59.2 µM (inactive) | 29.2 µM (inactive) | 24.3 µM (inactive) | 57.7 µM (inactive) | 29.1 µM (inactive) |
| Cn1c2ccccc2n2c(=O)c3cc([N+](=O)[O-])ccc3c(C#N)c12 | > 100 µM (inactive) | > 100 | > 100 µM (inactive) | > 100 µM (inactive) | > 100 µM (inactive) | > 100 µM (inactive) | > 100 µM (inactive) | > 100 µM (inactive) | > 100 µM (inactive) | > 100 µM (inactive) | 65.6 µM (inactive) | > 100 µM (inactive) | > 100 µM (inactive) | > 100 µM (inactive) | > 100 µM (inactive) | > 100 µM (inactive) | > 100 µM (inactive) |
| O=C1/C(=C/c2cccc([N+](=O)[O-])c2)N=C(c2ccccc2)N1c1nc2ccc(Sc3ccccc3)cc2[nH]1 | 88.7 µM (inactive) | 35.6 | 35.5 µM (inactive) | 30.9 µM (inactive) | 31.8 µM (inactive) | 38.9 µM (inactive) | 13.3 µM (inactive) | 14.9 µM (inactive) | 34.8 µM (inactive) | 46.6 µM (inactive) | 49.3 µM (inactive) | > 100 µM (inactive) | 45.1 µM (inactive) | 35.4 µM (inactive) | 37.2 µM (inactive) | 47.2 µM (inactive) | 3.45 µM (inactive) |
| C/C=C1/CN2CC[C@@H]3c4ccccc4N4[C@H](C(=O)OC)[C@H]1C[C@H]2[C@]34/C=C/C1=COC[C@@H]2[C@H]1C[C@H]1c3c(c4ccccc4n3C)C[C@@H]2N1C | 4.32 µM (inactive) | 4.14 | 4.48 µM (inactive) | 6.15 µM (inactive) | – | 4.37 µM (inactive) | 3.26 µM (inactive) | 2.32 µM (inactive) | 4.02 µM (inactive) | 4.39 µM (inactive) | 3.61 µM (inactive) | 4.33 µM (inactive) | 4.11 µM (inactive) | 2.9 µM (inactive) | 3.83 µM (inactive) | 4.23 µM (inactive) | 3.99 µM (inactive) |
| O=C1/C(=C\c2ccccc2)c2ccccc2N1Cc1ccccc1 | 3.61 µM (inactive) | 9.46 | 5.14 µM (inactive) | 2.88 µM (inactive) | 6.04 µM (inactive) | 9.16 µM (inactive) | 3.72 µM (inactive) | 5.18 µM (inactive) | 2.67 µM (inactive) | 10.7 µM (inactive) | 12.6 µM (inactive) | 10.4 µM (inactive) | 11.6 µM (inactive) | 11.1 µM (inactive) | 9.84 µM (inactive) | 6.61 µM (inactive) | 10 µM (inactive) |
| Brc1ccc2c([C@H]3CN[C@@H](c4c[nH]c5cc(Br)ccc45)CN3)c[nH]c2c1 | 12.3 µM (inactive) | 3.83 | 7.62 µM (inactive) | 1.74 µM (inactive) | 1.7 µM (inactive) | 2.24 µM (inactive) | 1.72 µM (inactive) | 1.66 µM (inactive) | 2.29 µM (inactive) | 2.54 µM (inactive) | 1.9 µM (inactive) | 4.95 µM (inactive) | 1.84 µM (inactive) | 3.9 µM (inactive) | 1.71 µM (inactive) | 5.47 µM (inactive) | 4.16 µM (inactive) |
| NS(=O)(=O)c1ccc(NNc2c3ccccc3nc3c(C(=O)Nc4ccc(S(=O)(=O)Nc5ncccn5)cc4)cccc23)cc1 | > 25 µM (inactive) | > 25 | > 25 µM (inactive) | > 25 µM (inactive) | > 25 µM (inactive) | > 25 µM (inactive) | > 25 µM (inactive) | > 25 µM (inactive) | > 25 µM (inactive) | > 25 µM (inactive) | > 25 µM (inactive) | > 25 µM (inactive) | > 25 µM (inactive) | > 25 µM (inactive) | > 25 µM (inactive) | > 25 µM (inactive) | > 25 µM (inactive) |
| NCCC1([N+](=O)[O-])C=CN=CC1 (centres undefined) | > 100 µM (inactive) | > 100 | > 100 µM (inactive) | > 100 µM (inactive) | > 100 µM (inactive) | > 100 µM (inactive) | > 100 µM (inactive) | > 100 µM (inactive) | > 100 µM (inactive) | > 100 µM (inactive) | > 100 µM (inactive) | > 100 µM (inactive) | > 100 µM (inactive) | > 100 µM (inactive) | > 100 µM (inactive) | > 100 µM (inactive) | > 100 µM (inactive) |
| COc1ccccc1CNCc1nc2ccccc2[nH]1 | > 100 µM (inactive) | > 100 | > 100 µM (inactive) | > 100 µM (inactive) | > 100 µM (inactive) | > 100 µM (inactive) | > 100 µM (inactive) | > 100 µM (inactive) | > 100 µM (inactive) | > 100 µM (inactive) | > 100 µM (inactive) | > 100 µM (inactive) | > 100 µM (inactive) | > 100 µM (inactive) | > 100 µM (inactive) | > 100 µM (inactive) | > 100 µM (inactive) |
| CCOCC(=O)N[C@H]1CCc2cc(OC(=O)COCC)c(OC)c(OC)c2-c2ccc(SC)c(=O)cc21 | 0.0752 µM (active) | 0.0551 | 0.0122 µM (active) | 0.0126 µM (active) | 0.00708 µM (active) | 0.0256 µM (active) | 0.00195 µM (active) | 0.0022 µM (active) | 0.0269 µM (active) | 0.0273 µM (active) | 10.5 µM (inactive) | 0.604 µM (active) | 0.0307 µM (active) | 0.0224 µM (active) | 0.0171 µM (active) | > 10 µM (inactive) | 0.914 µM (active) |
| Cn1c2c3ccc(Cl)cc3nc-2c(Cl)c2ccccc21 | 24.3 µM (inactive) | 14.7 | 40.6 µM (inactive) | 6.01 µM (inactive) | 16.9 µM (inactive) | 20.9 µM (inactive) | 18.1 µM (inactive) | 20.2 µM (inactive) | 19 µM (inactive) | 13.4 µM (inactive) | 17.1 µM (inactive) | 17.3 µM (inactive) | 20.2 µM (inactive) | 13.7 µM (inactive) | 11.9 µM (inactive) | 11.9 µM (inactive) | 16.3 µM (inactive) |
| CCOC(=O)C1=C(O)C2C3CC4C2C(O)=C(C(=O)OCC)C2C1C3C42 (centres undefined) | > 100 µM (inactive) | > 100 | > 100 µM (inactive) | > 100 µM (inactive) | > 100 µM (inactive) | > 100 µM (inactive) | > 100 µM (inactive) | > 100 µM (inactive) | > 100 µM (inactive) | > 100 µM (inactive) | > 100 µM (inactive) | > 100 µM (inactive) | > 100 µM (inactive) | > 100 µM (inactive) | > 100 µM (inactive) | > 100 µM (inactive) | > 100 µM (inactive) |
| CN1CCOC1(C)CO (centres undefined) | > 100 µM (inactive) | > 100 | > 100 µM (inactive) | > 100 µM (inactive) | > 100 µM (inactive) | > 100 µM (inactive) | > 100 µM (inactive) | > 100 µM (inactive) | > 100 µM (inactive) | > 100 µM (inactive) | > 100 µM (inactive) | > 100 µM (inactive) | > 100 µM (inactive) | > 100 µM (inactive) | > 100 µM (inactive) | > 100 µM (inactive) | > 100 µM (inactive) |
| CCC(C)[C@@H](NC1=C(Cl)C(=O)c2c(O)ccc(O)c2C1=O)C(=O)OC (some centres undefined) | 3.43 µM (inactive) | 2.94 | > 10 µM (inactive) | 3.59 µM (inactive) | 3.92 µM (inactive) | 2.31 µM (inactive) | 3.55 µM (inactive) | 3.56 µM (inactive) | 1.47 µM (inactive) | 2.07 µM (inactive) | 2.84 µM (inactive) | 5.12 µM (inactive) | 3.15 µM (inactive) | 3.86 µM (inactive) | 4.46 µM (inactive) | > 10 µM (inactive) | – |
| C[O+]=C1C=CC(=C2SC(c3ccccc3)(c3ccccc3)c3ccccc32)C=C1.[O-][Cl+3]([O-])([O-])[O-] | 24.7 µM (inactive) | 10.9 | 18.6 µM (inactive) | 26.7 µM (inactive) | 15.7 µM (inactive) | 16.1 µM (inactive) | 18.6 µM (inactive) | 21.1 µM (inactive) | 13.1 µM (inactive) | 21.1 µM (inactive) | 14.6 µM (inactive) | 19.5 µM (inactive) | 32.1 µM (inactive) | 20.9 µM (inactive) | 31.6 µM (inactive) | 20.8 µM (inactive) | 10 µM (inactive) |
